For the assay, the system named is MV-4-11 cells. In words: Gene expression microarray analysis (Affymetrix PrimeView) and GSEA. Also noted: RFU PODN (11730768_x_at) / Fold change /veh PODN (11730768_x_at) / RFU LINC00158 (11744669_a_at) / Fold change /veh LINC00158 (11744669_a_at) / RFU DUSP10 (11751237_a_at) / Fold change /veh DUSP10 (11751237_a_at) / RFU ID3 (11757404_x_at) / Fold change /veh ID3 (11757404_x_at) / RFU PLEKHG5 (11737974_s_at) / Fold change /veh PLEKHG5 (11737974_s_at) / RFU LRRC4B (11730491_at) / Fold change /veh LRRC4B (11730491_at) / RFU GIMAP4 (11747438_a_at) / Fold change /veh GIMAP4 (11747438_a_at) / RFU KRT8 (11758183_x_at) / Fold change /veh KRT8 (11758183_x_at) / RFU CNN1 (11734310_a_at) / Fold change /veh CNN1 (11734310_a_at) / RFU VPS37D (11726825_at) / Fold change /veh VPS37D (11726825_at) / RFU C10orf10 (11716522_x_at) / Fold change /veh C10orf10 (11716522_x_at) / RFU KIR2DL2 /// KIR2DL4 /// KIR2DL5A /// KIR2DL5B /// KIR2DS1 /// KIR2DS2 /// KIR2DS3 /// KIR2DS4 /// KIR3DL3 /// KIR3DL3 /// KIR3DS1 (11738374_at) / Fold change /veh KIR2DL2 /// KIR2DL4 /// KIR2DL5A /// KIR2DL5B /// KIR2DS1 /// KIR2DS2 /// KIR2DS3 /// KIR2DS4 /// KIR3DL3 /// KIR3DL3 /// KIR3DS1 (11738374_at) / RFU C1QL1 (11718748_at) / Fold change /veh C1QL1 (11718748_at) / RFU TMPRSS4 (11747572_a_at) / Fold change /veh TMPRSS4 (11747572_a_at) / RFU HAMP (11756126_x_at) / Fold change /veh HAMP (11756126_x_at) / RFU RNFT2 (11725882_a_at) / Fold change /veh RNFT2 (11725882_a_at) / RFU NR4A2 (11747474_a_at) / Fold change /veh NR4A2 (11747474_a_at) / RFU ABCC12 (11746883_a_at) / Fold change /veh ABCC12 (11746883_a_at) / RFU TMEM136 (11760407_x_at) / Fold change /veh TMEM136 (11760407_x_at) / RFU CLDN22 /// WWC2 (11732394_at) / Fold change /veh CLDN22 /// WWC2 (11732394_at) / RFU HLA-DPB1 (11760878_x_at) / Fold change /veh HLA-DPB1 (11760878_x_at) / RFU SPINT1 (11716480_a_at) / Fold change /veh SPINT1 (11716480_a_at) / RFU GAP43 (11754022_s_at) / Fold change /veh GAP43 (11754022_s_at) / RFU A4GNT (11735810_at) / Fold change /veh A4GNT (11735810_at) / RFU PRB3 (11715151_x_at) / Fold change /veh PRB3 (11715151_x_at) / RFU TUBB4B (11761932_at) / Fold change /veh TUBB4B (11761932_at) / RFU CAPN14 (11732068_a_at) / Fold change /veh CAPN14 (11732068_a_at) / RFU TMCC2 (11721928_a_at) / Fold change /veh TMCC2 (11721928_a_at) / RFU IRGQ (11745062_a_at) / Fold change /veh IRGQ (11745062_a_at) / RFU FAM174B (11720279_a_at) / Fold change /veh FAM174B (11720279_a_at) / RFU TMPRSS4 (11748680_a_at) / Fold change /veh TMPRSS4 (11748680_a_at) / RFU FAM212B (11763350_a_at) / Fold change /veh FAM212B (11763350_a_at) / RFU PLEKHG5 (11743358_a_at) / Fold change /veh PLEKHG5 (11743358_a_at) / RFU ZSCAN30 (11745921_a_at) / Fold change /veh ZSCAN30 (11745921_a_at) / RFU CMKLR1 (11741424_a_at) / Fold change /veh CMKLR1 (11741424_a_at) / RFU LOC101060620 /// MAPK8IP1 (11723275_at) / Fold change /veh LOC101060620 /// MAPK8IP1 (11723275_at) / RFU SPTSSB (11747773_x_at) / Fold change /veh SPTSSB (11747773_x_at) / RFU PRSS12 (11739890_at) / Fold change /veh PRSS12 (11739890_at) / RFU BIN1 (11741810_x_at) / Fold change /veh BIN1 (11741810_x_at) / RFU WNT11 (11732464_a_at) / Fold change /veh WNT11 (11732464_a_at) / RFU C10orf10 (11716521_a_at) / Fold change /veh C10orf10 (11716521_a_at) / RFU C5orf56 (11738089_at) / Fold change /veh C5orf56 (11738089_at) / RFU CYB561 (11721691_x_at) / Fold change /veh CYB561 (11721691_x_at) / RFU ANKRD19P (11752326_a_at) / Fold change /veh ANKRD19P (11752326_a_at) / RFU OR2T12 /// OR2T33 /// OR2T8 (11738714_s_at) / Fold change /veh OR2T12 /// OR2T33 /// OR2T8 (11738714_s_at) / RFU VCAN (11748164_a_at) / Fold change /veh VCAN (11748164_a_at) / RFU JSRP1 (11732532_at) / Fold change /veh JSRP1 (11732532_at) / RFU KRTAP10-11 (11738290_x_at) / Fold change /veh KRTAP10-11 (11738290_x_at) / RFU MYO3A (11730013_a_at) / Fold change /veh MYO3A (11730013_a_at) / RFU EBF3 (11725865_a_at) / Fold change /veh EBF3 (11725865_a_at) / RFU CAMK2N1 (11719241_x_at) / Fold change /veh CAMK2N1 (11719241_x_at) / RFU C5orf56 (11738088_a_at) / Fold change /veh C5orf56 (11738088_a_at) / RFU OLFML3 (11715873_a_at) / Fold change /veh OLFML3 (11715873_a_at) / RFU LOC100653217 /// NTM (11731650_a_at) / Fold change /veh LOC100653217 /// NTM (11731650_a_at) / RFU MAPK11 (11762145_a_at) / Fold change /veh MAPK11 (11762145_a_at) / RFU FIZ1 (11724087_x_at) / Fold change /veh FIZ1 (11724087_x_at) / RFU OASL (11726364_x_at) / Fold change /veh OASL (11726364_x_at) / RFU SOX15 (11748057_x_at) / Fold change /veh SOX15 (11748057_x_at) / RFU CD79A (11719716_a_at) / Fold change /veh CD79A (11719716_a_at) / RFU HIST1H1D (11736915_at) / Fold change /veh HIST1H1D (11736915_at) / RFU CASKIN2 (11723855_a_at) / Fold change /veh CASKIN2 (11723855_a_at) / RFU LOC730098 (11760151_x_at) / Fold change /veh LOC730098 (11760151_x_at) / RFU OR4N2 (11742367_at) / Fold change /veh OR4N2 (11742367_at) / RFU PRRT2 (11749266_a_at) / Fold change /veh PRRT2 (11749266_a_at) / RFU SNX32 (11753110_a_at) / Fold change /veh SNX32 (11753110_a_at) / RFU CDHR5 (11726645_a_at) / Fold change /veh CDHR5 (11726645_a_at) / RFU RCAN1 (11760418_a_at) / Fold change /veh RCAN1 (11760418_a_at) / RFU FAM167A (11723789_a_at) / Fold change /veh FAM167A (11723789_a_at) / RFU FAM26E (11764081_at) / Fold change /veh FAM26E (11764081_at) / RFU ISYNA1 (11749810_s_at) / Fold change /veh ISYNA1 (11749810_s_at) / RFU ACY1 (11761880_at) / Fold change /veh ACY1 (11761880_at) / RFU 11764098_at / Fold change /veh 11764098_at / RFU SAMD14 (11745864_x_at) / Fold change /veh SAMD14 (11745864_x_at) / RFU NPB (11741838_a_at) / Fold change /veh NPB (11741838_a_at) / RFU TMPRSS6 (11731388_a_at) / Fold change /veh TMPRSS6 (11731388_a_at) / RFU KRTAP10-2 (11738614_at) / Fold change /veh KRTAP10-2 (11738614_at) / RFU ARHGAP8 /// PRR5-ARHGAP8 (11727945_x_at) / Fold change /veh ARHGAP8 /// PRR5-ARHGAP8 (11727945_x_at) / RFU KRTAP5-7 /// NADSYN1 (11734609_at) / Fold change /veh KRTAP5-7 /// NADSYN1 (11734609_at) / RFU RASL12 (11751679_a_at) / Fold change /veh RASL12 (11751679_a_at) / RFU CDKN2B (11736163_a_at) / Fold change /veh CDKN2B (11736163_a_at) / RFU PRF1 (11729649_at) / Fold change /veh PRF1 (11729649_at) / RFU, ZNF638 /// ZNF638-IT1 / Fold change vs veh, ZNF638 /// ZNF638-IT1 / RFU, PANK3 / Fold change vs veh, PANK3 / RFU, SH3YL1 / Fold change vs veh, SH3YL1 / RFU, ZEB2 / Fold change vs veh, ZEB2 / RFU, NRIP1 / Fold change vs veh, NRIP1 / RFU, PTTG1IP / Fold change vs veh, PTTG1IP / RFU, CAPN2 / Fold change vs veh, CAPN2 / RFU, MED14 / Fold change vs veh, MED14 / RFU, SNORA58 / Fold change vs veh, SNORA58 / RFU, C1orf63 / Fold change vs veh, C1orf63 / RFU, LRRFIP1 / Fold change vs veh, LRRFIP1 / RFU, NDUFAF7 / Fold change vs veh, NDUFAF7 / RFU, SLC12A2 / Fold change vs veh, SLC12A2 / RFU, IBTK / Fold change vs veh, IBTK / RFU, ESF1 / Fold change vs veh, ESF1 / Fold change vs veh, TMEM50B / RFU, TAOK1 / Fold change vs veh, TAOK1 / RFU, ACBD3 / Fold change vs veh, ACBD3 / RFU, TMA16 / Fold change vs veh, TMA16 / RFU, RWDD3 / Fold change vs veh, RWDD3 / RFU, BCAT1 / Fold change vs veh, BCAT1 / RFU, EDEM3 / Fold change vs veh, EDEM3 / RFU, TMEM33 / Fold change vs veh, TMEM33 / RFU, WDR75 / Fold change vs veh, WDR75 / RFU, AHCTF1 / Fold change vs veh, AHCTF1 / RFU, TFRC / Fold change vs veh, TFRC / RFU, ZDHHC17 / Fold change vs veh, ZDHHC17 / RFU, NOM1 / Fold change vs veh, NOM1 / RFU, ARL8B / Fold change vs veh, ARL8B / RFU, ZBTB11 / Fold change vs veh, ZBTB11 / RFU, TAMM41 / Fold change vs veh, TAMM41 / RFU, KIAA1704 /// LOC100996395 / Fold change vs veh, KIAA1704 /// LOC100996395 / RFU, ING1 / Fold change vs veh, ING1 / RFU, TRMT61B / Fold change vs veh, TRMT61B / RFU, FUBP3 / Fold change vs veh, FUBP3 / RFU, TP53 / Fold change vs veh, TP53 / RFU, TNKS2 / Fold change vs veh, TNKS2 / RFU, ZFP14 / Fold change vs veh, ZFP14 / RFU, ACTR2 / Fold change vs veh, ACTR2 / RFU, PPP3R1 / Fold change vs veh, PPP3R1 / RFU, PIK3R1 / Fold change vs veh, PIK3R1 / RFU, HNRNPA1 / Fold change vs veh, HNRNPA1 / RFU, RNF170 / Fold change vs veh, RNF170 / RFU, ZNF28 / Fold change vs veh, ZNF28 / RFU, RNGTT / Fold change vs veh, RNGTT / RFU, OGT / Fold change vs veh, OGT / RFU, BRD1 / Fold change vs veh, BRD1 / RFU, MARS / Fold change vs veh, MARS / RFU, ZNF655 / Fold change vs veh, ZNF655 / RFU, FAHD1 / Fold change vs veh, FAHD1 / RFU, BDP1 / Fold change vs veh, BDP1 / RFU, LRRCC1 / Fold change vs veh, LRRCC1 / RFU, ARID1A / Fold change vs veh, ARID1A / RFU, ZNF146 / Fold change vs veh, ZNF146 / RFU, ZNF330 / Fold change vs veh, ZNF330 / RFU, GPN3 / Fold change vs veh, GPN3 / RFU, C9orf123 / Fold change vs veh, C9orf123 / RFU, N4BP2L2 / Fold change vs veh, N4BP2L2 / RFU, ARFIP1 / Fold change vs veh, ARFIP1 / RFU, FAM179B / Fold change vs veh, FAM179B / RFU, BCL10 / Fold change vs veh, BCL10 / RFU, UHRF1BP1L / Fold change vs veh, UHRF1BP1L / RFU, BET1 / Fold change vs veh, BET1 / RFU, CNOT2 / Fold change vs veh, CNOT2 / RFU, ZNF268 / Fold change vs veh, ZNF268 / Fold change vs veh, ZNF507 / RFU, DGCR2 / Fold change vs veh, DGCR2 / RFU, WDSUB1 / Fold change vs veh, WDSUB1 / Fold change vs veh, HSP90B1 /// MIR3652 / RFU, ADSS / Fold change vs veh, ADSS / RFU, GK / Fold change vs veh, GK / RFU, ZNF148 / Fold change vs veh, ZNF148 / RFU, TAF9 / Fold change vs veh, TAF9 / RFU, SLC1A5 / Fold change vs veh, SLC1A5 / RFU, SLMO2 / Fold change vs veh, SLMO2 / RFU, ABCC4 / Fold change vs veh, ABCC4 / RFU, LOC101060439 /// RAP1B / Fold change vs veh, LOC101060439 /// RAP1B / RFU, RFX7 / Fold change vs veh, RFX7 / RFU, GTPBP10 / Fold change vs veh, GTPBP10 / RFU, CNEP1R1 / Fold change vs veh, CNEP1R1 / RFU, BIVM-ERCC5 /// ERCC5 / Fold change vs veh, BIVM-ERCC5 /// ERCC5 / RFU, ILF3 / Fold change vs veh, ILF3 / RFU 11762660_at / Fold change /veh 11762660_at / RFU VCAN (11757783_s_at) / Fold change /veh VCAN (11757783_s_at) / RFU DDX43 (11728927_at) / Fold change /veh DDX43 (11728927_at) / RFU KRT8 (11758188_x_at) / Fold change /veh KRT8 (11758188_x_at) / RFU NKD1 (11759106_at) / Fold change /veh NKD1 (11759106_at) / RFU SRD5A1 (11742802_a_at) / Fold change /veh SRD5A1 (11742802_a_at) / RFU TPSAB1 /// TPSB2 (11721975_s_at) / Fold change /veh TPSAB1 /// TPSB2 (11721975_s_at) / RFU GSTM3 (11746129_a_at) / Fold change /veh GSTM3 (11746129_a_at) / RFU IL23R (11737362_x_at) / Fold change /veh IL23R (11737362_x_at) / RFU TMEM51 (11727254_a_at) / Fold change /veh TMEM51 (11727254_a_at) / RFU PIWIL2 (11732686_x_at) / Fold change /veh PIWIL2 (11732686_x_at) / RFU ORM1 (11744905_x_at) / Fold change /veh ORM1 (11744905_x_at) / RFU CCDC152 (11743942_at) / Fold change /veh CCDC152 (11743942_at) / RFU ECM1 (11717891_a_at) / Fold change /veh ECM1 (11717891_a_at) / RFU IL23R (11748794_a_at) / Fold change /veh IL23R (11748794_a_at) / RFU TNFAIP8L3 (11732012_x_at) / Fold change /veh TNFAIP8L3 (11732012_x_at) / RFU MBOAT4 (11741988_at) / Fold change /veh MBOAT4 (11741988_at) / RFU 11764193_at / Fold change /veh 11764193_at / RFU TMEM53 (11763286_at) / Fold change /veh TMEM53 (11763286_at) / RFU MAGEB2 (11727129_at) / Fold change /veh MAGEB2 (11727129_at) / RFU TMEM200A (11744735_a_at) / Fold change /veh TMEM200A (11744735_a_at) / RFU CCDC152 (11751479_a_at) / Fold change /veh CCDC152 (11751479_a_at) / RFU FAM211A (11726209_a_at) / Fold change /veh FAM211A (11726209_a_at) / RFU RGS16 (11746705_a_at) / Fold change /veh RGS16 (11746705_a_at) / RFU VCAN (11755009_s_at) / Fold change /veh VCAN (11755009_s_at) / RFU RHOB (11743442_s_at) / Fold change /veh RHOB (11743442_s_at) / RFU RGS16 (11720943_a_at) / Fold change /veh RGS16 (11720943_a_at) / RFU RGS16 (11720944_at) / Fold change /veh RGS16 (11720944_at) / RFU, VPS4B / Fold change vs veh, VPS4B / RFU, CREB1 / Fold change vs veh, CREB1 / RFU, DNAJC13 / Fold change vs veh, DNAJC13 / RFU, GNAQ / Fold change vs veh, GNAQ / RFU, CDK5R1 / Fold change vs veh, CDK5R1 / RFU, ZRANB3 / Fold change vs veh, ZRANB3 / RFU, CUL4A / Fold change vs veh, CUL4A / RFU, CCNY / Fold change vs veh, CCNY / RFU, UFL1 / Fold change vs veh, UFL1 / RFU, COG3 / Fold change vs veh, COG3 / RFU, DIAPH2 / Fold change vs veh, DIAPH2 / RFU, SKA2 / Fold change vs veh, SKA2 / RFU, AFF3 / Fold change vs veh, AFF3 / RFU, LMF1 / Fold change vs veh, LMF1 / RFU, IPO11 / Fold change vs veh, IPO11 / RFU, DFFB / Fold change vs veh, DFFB / RFU, FOXP1 / Fold change vs veh, FOXP1 / RFU, CARD8 / Fold change vs veh, CARD8 / RFU, STRN3 / Fold change vs veh, STRN3 / RFU, ADK / Fold change vs veh, ADK / RFU, RASSF2 / Fold change vs veh, RASSF2 / RFU, WIPF1 / Fold change vs veh, WIPF1 / RFU, LARP1B / Fold change vs veh, LARP1B / RFU, RASA1 / Fold change vs veh, RASA1 / RFU, RB1 / Fold change vs veh, RB1 / RFU, PPFIA1 / Fold change vs veh, PPFIA1 / RFU, MAT2A / Fold change vs veh, MAT2A / RFU, CCT5 / Fold change vs veh, CCT5 / RFU, WDR92 / Fold change vs veh, WDR92 / RFU, CUX1 / Fold change vs veh, CUX1 / RFU, TTC7A / Fold change vs veh, TTC7A / RFU, TMEM135 / Fold change vs veh, TMEM135 / RFU, DEPTOR / Fold change vs veh, DEPTOR / RFU, CPM / Fold change vs veh, CPM / RFU, DNAJB6 / Fold change vs veh, DNAJB6 / RFU, CACNA2D3 / Fold change vs veh, CACNA2D3 / RFU, DTX4 / Fold change vs veh, DTX4 / RFU, TFCP2 / Fold change vs veh, TFCP2 / RFU, GMCL1 /// GMCL1P1 / Fold change vs veh, GMCL1 /// GMCL1P1 / RFU, AEBP2 / Fold change vs veh, AEBP2 / RFU, SNHG1 /// SNORD22 /// SNORD25 /// SNORD26 /// SNORD27 /// SNORD28 /// SNORD29 /// SNORD31 / Fold change vs veh, SNHG1 /// SNORD22 /// SNORD25 /// SNORD26 /// SNORD27 /// SNORD28 /// SNORD29 /// SNORD31 / Fold change (Aza/veh), C12orf56 (ProbeSet 11735607_a_at) / Fold change (ACY-1035/veh), C12orf56 (ProbeSet 11735607_a_at) / Fold change (Aza/veh), FGFR1OP (ProbeSet 11751329_s_at) / Fold change (ACY-1035/veh), FGFR1OP (ProbeSet 11751329_s_at) / Fold change (Aza/veh), VPS36 (ProbeSet 11739960_a_at) / Fold change (ACY-1035/veh), VPS36 (ProbeSet 11739960_a_at) / RFU SYPL1 (11715823_x_at) / Fold change /veh SYPL1 (11715823_x_at) / RFU IGFBP7 (11715501_s_at) / Fold change /veh IGFBP7 (11715501_s_at) / RFU REEP3 (11722064_at) / Fold change /veh REEP3 (11722064_at) / RFU IGLL1 (11728026_x_at) / Fold change /veh IGLL1 (11728026_x_at): dose or concentration left out as unconfirmed. Particulars: MV-4-11 cells, 48 hours. It is filed as cell-based, human.

On to `Nc1ncn([C@@H]2O[C@H](CO)[C@@H](O)[C@H]2O)c(=O)n1` [azacitidine], for which the “RFU PRRT2 (11749266_a_at)” value was determined as 42.08 RFU.

Values taken from article PMC5218480 (PLoS ONE, 2017).
